This is an account of results in ChEMBL document CHEMBL4402574, “Discovery of Acylsulfonohydrazide-Derived Inhibitors of the Lysine Acetyltransferase, KAT6A, as Potent Senescence-Inducing Anti-Cancer Agents” (J Med Chem, 2020).

Molecules are shown by their SMILES. In brackets after ≈: the same amount, converted by molar mass.

The nature of series [1]: Kinetic solubility of the compound in 0.01 M HCl at pH 2 by nephelometry. The format is physicochemical. The note with it: read-out: Kinetic_solubility.
Series [2] in a line: Kinetic solubility of the compound in phosphate buffer at pH 6.5 by nephelometry. The format is physicochemical. The note with it: read-out: Kinetic_solubility.
A short description of series [3]: Apparent permeability across apical to basolateral side in human Caco2 cells measured over 90 mins by LC-MS/MS analysis. The class given is ADME, cell-based. The settings on record: Caco-2. For orientation: Passage across Caco-2 layers is used to estimate intestinal permeability.
Series [4] can be described thus: Cysteine reactivity assessed as induction of confirmational change in 13C-methyl-labeled La antigen at 400 uM incubated for 1 hr at 37 degC followed by incubation at 30 degC for 15 mins in presence of DTT by ALARM NMR assay.
Series [5] is described as follows: Cysteine reactivity assessed as induction of confirmational change in 13C-methyl-labeled La antigen at 400 uM incubated for 1 hr at 37 degC followed by incubation at 30 degC for 15 mins in absence of DTT by ALARM NMR assay.
Series [6] can be described thus: Cmax in Swiss mouse at 30 mg/kg, ip by UPLC analysis. The class given is ADME, organism-based. Further details: dose 30 mg/kg, route intraperitoneal. The settings on record: in vivo.
The nature of series [7]: Tmax in Swiss mouse at 30 mg/kg, ip by UPLC analysis. The format is ADME, organism-based. The note with it: in vivo.
Series [8] is described as follows: Volume of distribution at steady state in Sprague-Dawley rat at […], iv. The class given is ADME, organism-based. The note with it: in vivo, read-out: Vdss.
Series [9] in a line: AUC (0 to infinity) in Sprague-Dawley rat at […], iv. The format is ADME, organism-based. Further details: dose 2.9 mg/kg, time infinity, route intravenous. The settings on record: in vivo.
The nature of series [10]: Drug excretion in Sprague-Dawley rat urine at […], iv. The class given is ADME, organism-based. The settings on record: in vivo, BLD = below limit of detection.
Series [11] is described as follows: Cmax in Sprague-Dawley rat at 33 mg/kg, po administered as suspension using HPMC formulation. The class given is ADME, organism-based. Details: dose 33 mg/kg, route oral. The note with it: in vivo.
Series [12] is described as follows: Tmax in Sprague-Dawley rat at 33 mg/kg, po administered as suspension using HPMC formulation. The class given is ADME, organism-based. The note with it: in vivo.
Series [13] in a line: AUC (0 to infinity) in Sprague-Dawley rat at 33 mg/kg, po administered as suspension using HPMC formulation. The format is ADME, organism-based. Further details: dose 33 mg/kg, route oral, time infinity. The settings on record: in vivo.
The nature of series [14]: Drug excretion in Sprague-Dawley rat urine at 33 mg/kg, po administered as suspension using HPMC formulation. The format is ADME, organism-based. The note with it: read-out: Drug excretion.
A short description of series [15]: Cmax in Sprague-Dawley rat at 31 mg/kg, po using PEG400/Solutol HS-15/water formulation. The format is ADME, organism-based. Further details: dose 31 mg/kg, route oral. The settings on record: in vivo.
Series [16] can be described thus: Tmax in Sprague-Dawley rat at 31 mg/kg, po using PEG400/Solutol HS-15/water formulation. The settings on record: in vivo. The format is ADME, organism-based.
A short description of series [17]: AUC (0 to infinity) in Sprague-Dawley rat at 31 mg/kg, po using PEG400/Solutol HS-15/water formulation. The class given is ADME, organism-based. Further details: dose 31 mg/kg, time infinity, route oral. The note with it: in vivo.
Series [18] is described as follows: Drug excretion in Sprague-Dawley rat urine at 31 mg/kg, po using PEG400/Solutol HS-15/water formulation. The class given is ADME, organism-based. The settings on record: read-out: Drug excretion.
A further series can be described thus: in vivo. The note with it: Sprague-Dawley, rat, po, 33 mg/kg.

On to `Cc1cc(OC(C)C)cc(C(=O)NNS(=O)(=O)c2ccccc2F)c1`, for which the solubility kinetic in series [1] and in series [2] was 12.5 to 25 µg/mL (≈ 34.1 to 68.2 µM) in each case.

As a reminder, the Papp A→B is the apparent permeability from the apical to the basolateral side of a cell layer. Consider `Cc1cc(-c2ccccn2)cc(C(=O)NNS(=O)(=O)c2ccccc2)c1F`, for which the solubility kinetic in series [1] was in the range of 50 to 100 µg/mL (≈ 130 to 259 µM); in series [2] it was 6.3 to 12.5 µg/mL (≈ 16.3 to 32.4 µM). Further, the apparent permeability from apical to basolateral (Papp A→B) at […] in series [3] stood at 63 ×10⁻⁶ cm/s.

In the case of `CCOc1cc(C)c(F)c(C(=O)NNS(=O)(=O)c2ccccc2)c1`, the solubility kinetic in [1] and in series [2] was 12.5 to 25 µg/mL (≈ 35.5 to 70.9 µM) in each case. For the same molecule, in [3], the Papp A→B at […] was 65 ×10⁻⁶ cm/s.

As to `O=C(NNS(=O)(=O)c1ccccc1F)c1cc(F)cc(-n2cccn2)c1`, the solubility kinetic in series [1] and in series [2] was 25 to 50 µg/mL (≈ 66.1 to 132 µM) in each case.

Turning to `CCOc1cc(C)cc(C(=O)NNS(=O)(=O)c2ccccc2F)c1`, the Drug metabolism result in series [4] and in series [5] was “Metabolite_Notdetected” each time. Besides, the solubility kinetic in series [1] and in series [2] was 12.5 to 25 µg/mL (≈ 35.5 to 70.9 µM) each time. For the same molecule, the apical-to-basolateral permeability (Papp A→B) at […] in series [3] is 47 ×10⁻⁶ cm/s.

Turning to `Cc1cc(C(=O)NNS(=O)(=O)c2ccccc2F)cc(-n2cccn2)c1`, the solubility kinetic in [1] and in series [2] was 12.5 to 25 µg/mL (≈ 33.4 to 66.8 µM) each time.

Regarding `CC(C)Oc1cccc(C(=O)NNS(=O)(=O)c2ccccc2F)c1`, the solubility kinetic in series [1] and in series [2] was 50 to 100 µg/mL (≈ 142 to 284 µM) throughout.

Take `O=C(NNS(=O)(=O)c1ccccc1F)c1cccc(-n2cccn2)c1`: the solubility kinetic in series [1] and in series [2] was 50 to 100 µg/mL (≈ 139 to 277 µM) each time.

`O=C(NNS(=O)(=O)c1ccccc1F)c1cccc(-c2ccco2)c1`: the apparent permeability from apical to basolateral (Papp A→B) at […] in series [3] turned out to be 55.3 ×10⁻⁶ cm/s.

For the molecule `Cc1cc(-n2cccn2)cc(C(=O)NNS(=O)(=O)c2ccccc2)c1F`, the solubility kinetic in series [1] and in series [2] was 6.3 to 12.5 µg/mL (≈ 16.8 to 33.4 µM) in each case. In addition, the Papp A→B at […] in series [3] came out at 48 ×10⁻⁶ cm/s.

As a reminder, the Cmax is the peak of the concentration-time curve. As usually defined, the Tmax is the time from dosing to the highest level. Turning to `Cc1cc(-c2ncccn2)cc(C(=O)NNS(=O)(=O)c2ccccc2)c1F`, the solubility kinetic in [1] and in series [2] was 50 to 100 µg/mL (≈ 129 to 259 µM) each time. Besides, the apparent permeability from apical to basolateral (Papp A→B) at […] in [3] was found to be 77 ×10⁻⁶ cm/s. In series [6], this molecule displayed a Cmax of 12.1 µM. In addition, the time to peak (Tmax) in [7] worked out at 0.28 h.

Turning to `Cc1cc(C(=O)NNS(=O)(=O)c2ccccc2F)cc(-c2ccccn2)c1`, the solubility kinetic in series [1] is more than 100 µg/mL; in series [2], 12.5 to 25 µg/mL (≈ 32.4 to 64.9 µM).

As for `Cc1cc(C(=O)NNS(=O)(=O)c2ccccc2F)cc(-c2ccco2)c1`, the solubility kinetic in [1] and in [2] was 6.3 to 12.5 µg/mL (≈ 16.8 to 33.4 µM) throughout.

As for `CCCOc1cccc(C(=O)NNS(=O)(=O)c2ccccc2F)c1`, the Papp A→B at […] in [3] came to 77.3 ×10⁻⁶ cm/s.

For orientation: AUC(0-inf) means total exposure, with the tail of the curve extrapolated. Read a high AUC(0-inf) as more exposure. One may read the bioavailability as dose-corrected exposure relative to a reference, in per cent. Read a low bioavailability as poor availability. Consider `O=C(NNS(=O)(=O)c1ccccc1F)c1cc(F)cc(-c2ccccn2)c1` [WM-1119], for which the Drug metabolism entry in series [4] and in series [5] was “Metabolite_Notdetected” each time. Also, the solubility kinetic in [1] and in [2] was 25 to 50 µg/mL (≈ 64.2 to 128 µM) each time. For the same molecule, in series [3], the Papp A→B at […] is 60 ×10⁻⁶ cm/s. Moreover, in [8], the Vd worked out at 0.72 L/kg. Further, the area under the curve AUC(0-inf) in series [9] came out at 6.2 µM·h; in series [13], 13 µM·h; in series [17] it was 38 µM·h. The Drug excretion entry in series [10] is given as “Bld”. Also, the highest concentration (Cmax) in series [11] came out at 2.9 µM; in series [15], 14 µM. Besides, the Tmax in series [12] and in series [16] was 1 h each time. In addition, the dose excreted came out at 0.009% in [14] and 0.078% in [18]. This molecule had a bioavailability in the series “in vivo” of 18%.

With `O=C(NNS(=O)(=O)c1ccccc1F)c1cccc(-c2ccccn2)c1`, the figures for the solubility kinetic in series [1] and in [2] were 50 to 100 µg/mL (≈ 135 to 269 µM) and 12.5 to 25 µg/mL (≈ 33.7 to 67.3 µM), respectively.

Consider `C=CCOc1ccc(F)c(C(=O)NNS(=O)(=O)c2ccccc2)c1`, for which the solubility kinetic in series [1] and in series [2] was 50 to 100 µg/mL (≈ 143 to 285 µM) throughout.

In the case of `O=C(NNS(=O)(=O)c1ccccc1F)c1cc(Cl)cc(-c2cccs2)c1`, the Papp A→B at […] in series [3] is 27.8 ×10⁻⁶ cm/s.

Regarding `O=C(NNS(=O)(=O)c1ccccc1F)c1cccc(I)c1`, the Papp A→B at […] in series [3] was found to be 60.4 ×10⁻⁶ cm/s.

In the case of `Cc1cc(-n2nccn2)cc(C(=O)NNS(=O)(=O)c2ccccc2)c1F`, the solubility kinetic in series [1] and in series [2] was 25 to 50 µg/mL (≈ 66.6 to 133 µM) throughout. Moreover, the Papp A→B at […] in [3] worked out at 53 ×10⁻⁶ cm/s.
